Laboratory results from patent US6100283A, “Benzimidazole compounds” (Newcastle University Ventures Limited, priority 1995, dated 2000).
Several values for one entry are separate records, joined by “and”; a condition that tells them apart may be missing. Equal values may be shown once. Read-outs that look alike come from different tables or passages of the source.

Key:
PARP = target: T1, PARP (Mus musculus, UniProt P11103); assay: PARP enzyme inhibition assay ([32P]-NAD+ incorporation into TCA-precipitated poly(ADP-ribose), oligonucleotide-activated, permeabilised L1210 cells); format: biochemical, murine (L1210 leukaemia cells); details: for IC50: permeabilised L1210 cells, 26° C., 5 minutes
T1 construct: endogenous in cells; host or cells: L1210 murine leukaemia cells, permeabilised by hypotonic buffer and cold shock
T1 sequence (P11103 whole entry): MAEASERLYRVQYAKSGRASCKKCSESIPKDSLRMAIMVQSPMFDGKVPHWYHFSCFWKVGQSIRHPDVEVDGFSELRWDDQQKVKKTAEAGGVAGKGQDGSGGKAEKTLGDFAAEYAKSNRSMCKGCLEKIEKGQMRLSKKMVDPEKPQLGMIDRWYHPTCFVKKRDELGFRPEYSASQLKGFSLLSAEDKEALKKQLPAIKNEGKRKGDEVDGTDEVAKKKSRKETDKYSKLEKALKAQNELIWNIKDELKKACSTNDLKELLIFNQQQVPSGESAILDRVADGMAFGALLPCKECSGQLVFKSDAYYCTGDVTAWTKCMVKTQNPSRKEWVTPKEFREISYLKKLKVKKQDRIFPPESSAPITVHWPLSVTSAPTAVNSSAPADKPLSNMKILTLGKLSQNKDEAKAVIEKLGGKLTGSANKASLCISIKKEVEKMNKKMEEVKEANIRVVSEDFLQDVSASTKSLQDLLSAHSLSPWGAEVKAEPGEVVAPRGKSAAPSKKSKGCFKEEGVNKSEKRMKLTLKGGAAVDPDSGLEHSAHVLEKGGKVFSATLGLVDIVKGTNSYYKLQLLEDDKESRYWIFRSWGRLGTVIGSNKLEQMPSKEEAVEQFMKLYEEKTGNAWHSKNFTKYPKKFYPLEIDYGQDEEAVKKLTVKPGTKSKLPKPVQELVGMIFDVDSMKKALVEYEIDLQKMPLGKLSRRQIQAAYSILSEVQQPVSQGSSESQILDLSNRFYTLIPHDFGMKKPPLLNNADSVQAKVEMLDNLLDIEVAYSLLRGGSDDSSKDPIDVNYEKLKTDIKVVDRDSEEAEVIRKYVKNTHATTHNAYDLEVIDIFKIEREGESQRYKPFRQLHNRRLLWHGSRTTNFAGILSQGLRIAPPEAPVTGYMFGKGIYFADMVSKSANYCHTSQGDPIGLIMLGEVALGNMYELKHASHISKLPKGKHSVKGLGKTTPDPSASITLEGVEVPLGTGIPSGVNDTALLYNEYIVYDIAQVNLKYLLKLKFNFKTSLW
Description: The poly(ADP-ribose) which is then synthesised by the enzyme can be precipitated by tri-chloracetic acid (TCA) and the amount of radio-labelled ^32 p incorporated therein measured, e.g. using a scintillation counter, to give a measure of the activity of the PARP under the particular conditions of the experiment. By repeating the experiment following the same procedure, and under the same conditions, in the presence of each compound to be tested the reduction in enzyme activity, representative of the inhibitory effect of the test compound, can then be ascertained from the reduction, if any, of the amount of [^32 p] measured in the TCA precipitated poly(ADP-ribose).
Thus, with a range of different compounds a set of comparative values for inhibitory activity can be obtained.
In practice, L1210 murine leukaemia cells have been used as a source of the PARP enzyme after being rendered permeable to exogenous [^32 P]NAD by exposure to hypotonic buffer and cold shock. […] This oligonucleotide sequence snaps back on itself to form a double-stranded molecule with a single blunt end and provides an effective substrate for activation of PARP.
The experimental protocol adopted, in which a synthetic oligonucleotide as mentioned above is introduced as a specific activator of PARP, discriminates between PARP and other mono-ADP-ribosyltransferases in the cells.
The oligonucleotide having the palindromic sequence […], synthesised by conventional means, was vacuum dried and stored as pellets in a freezer. Before use, it was made up to 200 μg/ml in 10 mM Tris/HCl, pH 7.8, with each pellet being dissolved completely in […] of buffer. The solution was then heated to 60° C. in a water bath for 15 minutes, and allowed to cool slowly to ensure correct reannealing. After adding 9.5 ml of buffer, the concentration was checked by measuring the optical density of a diluted sample at 260 nm. The main solution was then diluted to a concentration of 200 μg/ml and stored in 500 μl aliquots in a freezer, ready for use.
The L1210 cells used as the source of the PARP enzyme were maintained as a suspension culture in RPMI medium+10% foetal bovine serum+glutamine and antibiotics (penicillin and streptomycin). HEPES and sodium bicarbonate were also added, and the cells were seeded in 100 ml-200 ml of medium such that there would be a concentration of approximately 8×10^5 /ml at the time of carrying out an assay.
The solubility of the compound was then checked by adding a quantity of the DMSO solution to a quantity of the isotonic buffer, in the required final proportions that were to be used in carrying out the assay, and after an interval the solution was examined under a microscope for any signs of crystals forming.
A desired quantity of the cells, ascertained by counting with a haemocytometer, was then centrifuged (1500 rpm in a "Europa" model 24M centrifuge for 5 minutes), the supernatant removed, and the pellets obtained were resuspended in 20 ml Ca^++ Mg^++ free phosphate buffered saline (Dulbeco's modification A, abbreviated Dul A) at 4° C. before centrifuging again at 1500 rpm and 4° C. After again removing the supernatant, the cells were resuspended at a concentration of 3×10^7 cells/ml in ice cold hypotonic buffer and left for 30 minutes on ice. Nine volumes were then added of ice cold isotonic buffer, and the cells, now rendered permeable to exogenous NAD^+, were then used within the next hour for carrying out an assay. The permeablisation of the cells may be checked at this stage by adding duplicate aliquots of cells to an equal volume of trypan blue, leaving for 5 minutes and then counting on a haemocytometer. Those rendered permeable will take up the Trypan blue and appear coloured.

[1] = tested on: L1210 murine leukaemia cells; assay: in vitro cytotoxicity assay (colony formation, L1210 cells, NU1064 with or without temozolomide); format: cell-based; details: for relative plating efficiency, NU1064 with temozolomide: 24 hours, normalised to temozolomide alone = 100%
Experimental: Again using cultures of the murine leukaemia L1210 cell line, growth inhibition experiments were carried out to assess the cytostatic effects of the compounds and clonogenic survival assays were performed to assess cytotoxicity, especially in relation to use of the compounds in conjunction with DNA damaging cytotoxic agents such as cytotoxic antitumour drugs or gamma irradiation. […] After 1 week colonies of viable cells were stained with MTT (1 ml 0.5 mg/ml) and counted.

[2] = read-out: IC50 value (PARP inhibition)

IC50 (PARP; [2]) [nM] | Compound | other results
91 | NC(=O)c1cccc2nc(-c3ccc(N)cc3)[nH]c12 [NU1103, 2-(4'-aminophenyl)benzimidazole-4-carboxamide] | 
12400 ± 3100 | NC(=O)c1ccccc1 [benzamide, reference compound] | 
76 | NC(=O)c1cccc2[nH]c(-c3cccc(C(F)(F)F)c3)nc12 [NU1093, 2-(3'-Trifluoromethylphenyl)-1-H-benzimidazole-4-carboxamide] | 
130 | COc1cccc(-c2nc3c(C(N)=O)cccc3[nH]2)c1 [NU1098, 2-(3'-Methoxyphenyl)-1-H-benzimidazole-4-carboxamide] | 
270 | COc1ccc(-c2nc3c(C(N)=O)cccc3n2C(=O)c2ccccc2)cc1 [NU1101, 2-(4'-Methoxyphenyl)-1-benzoylbenzimidazole-4-carboxamide] | 

Further lines, the compound ahead of its results:

Compound | IC50 (PARP; [2]) [nM] | other results
NC(=O)c1cccc2[nH]c(-c3ccc([N+](=O)[O-])cc3)nc12 [NU1091, 2-(4'-Nitrophenyl)-1-H-benzimidazole-4-carboxamide] | 22 | PARP inhibitory activity (in words) (PARP): exceptionally high inhibitory activities
O=C(O)c1cccc2nc[nH]c12 [NU1067, benzimidazole-4-carboxylic acid] |  | % Inhibition at 10 μM or IC50 value (result in words) (PARP; result in words in table): Inactive
NC(=O)c1cccc2[nH]c(C(F)(F)F)nc12 [NU1086, 2-trifluoromethylbenzimidazole-4-carboxamide] | 1600 | 
NC(=O)c1cccc(O)c1 [3-hydroxybenzamide, reference compound] | 8000 ± 3500 | 
COc1ccc(-c2nc3c(C(N)=O)cccc3[nH]2)cc1 [NU1076, 2-(4'-methoxyphenyl)benzimidazole-4-carboxamide] | 59 | 
NC(=O)c1cccc2nc(-c3ccc(O)cc3)[nH]c12 [NU1085, 2-(4'-Hydroxyphenyl)-1-H-benzimidazole-4-carboxamide] |  | IC50 (PARP; IC50 value (PARP inhibition)): 77 nM
Cc1nc2c(C(N)=O)cccc2[nH]1 [NU1064, 2-methylbenzimidazole-4-carboxamide] | 1090 ± 230 | relative plating efficiency, NU1064 with temozolomide ([1]; 100 μM NU1064 + 100 μM temozolomide): 28%; relative plating efficiency, NU1064 with temozolomide ([1]; 200 μM NU1064 + 100 μM temozolomide): 2%; viability at 100 µM ([1]; Mus musculus, L1210, 100 μM NU1064, 24 hours, normalised to control = 100%, read-out: relative plating efficiency, NU1064 alone): 72%; viability at 200 µM ([1]; Mus musculus, L1210, 200 μM NU1064, 24 hours, normalised to control = 100%, read-out: relative plating efficiency, NU1064 alone): 54%; potentiation of temozolomide cytotoxicity (in words) ([1]; increasing concentrations of NU1064 + 100 μM temozolomide): very marked increase in temozolomide cytotoxicity
N#Cc1ccc(-c2nc3c(C(N)=O)cccc3[nH]2)cc1 [NU1092, 2-(4'-Cyanophenyl)-1-H-benzimidazole-4-carboxamide] | 33 | PARP inhibitory activity (in words) (PARP): exceptionally high inhibitory activities
NC(=O)c1cccc2[nH]cnc12 [NU1066, benzimidazole-4-carboxamide] |  | IC50 (PARP; IC50 value (PARP inhibition)): 1260 nM and 1020 nM
CGGAATTCCG: single strand oligonucleotide having the palindromic sequence CGGAATTCCG, activator of PARP (chemistry not given here) [reference compound] |  | activation of PARP by oligonucleotide (in words) (PARP): potent activator of the enzyme
Cn1nnc2c(C(N)=O)ncn2c1=O [temozolomide, reference compound] |  | plating efficiency ([1]; 100 μM temozolomide alone, 24 hours (control 89%)): 32%
COc1ccc(-c2nc3c(C(N)=O)cccc3n2C)cc1 [NU1090, 2-(4'-Methoxyphenyl)-1-methylbenzimidazole-4-carboxamide] | ~100 | 
